Patent US11999806B2, “Broad-spectrum polypeptide against enterovirus and application thereof” (WUHAN INSTITUTE OF VIROLOGY, CHINESE ACADEMY OF SCIENCES, priority 2018, dated 2024)
“And” between values parts separate entries of the source, which are not always exact repeats. Equal values may be shown once. No end group written: not given here.

System: EV71
Experiment: Anti-EV71 efficiency in RD cells, viral RNA by qRT-PCR
Type: cell-based, enterovirus 71
Settings: for Relative viral RNA amount (%): 24 h, control infected without polypeptide
Description: • (1) RD cells were plated in five 100 mm dishes. • (2) After the cells reached 70%-80% confluence, the MEM medium containing 10% serum was replaced with a MEM medium containing 2% serum. […] When the changes were obvious, samples were collected as follows. • (4) The supernatant in the 100 mm dish was transferred into a 15 ml centrifuge tube, and centrifuged at 500 g for 5 min. • (5) The supernatant was transferred into a new 15 ml centrifuge tube, and filtered through 0.22 μm filter membrane with a 50 ml syringe. • (6) RNA was extracted from 100 μl of the supernatant obtained in step (5) and subjected to one step qRT-PCR to measure the virus titer, and the previously extracted virus RNA with known titer was handled together as a control. 3. Measure Antiviral Efficiency of Polypeptide in RD Cells. • (1) Different cells were plated in 24-well cell plates. • (2) After the cells reached 70%-80% confluence, the MEM medium containing 10% serum was replaced with a MEM medium containing 2% serum (0.5 ml/well), and 5 μl of 10^6 PFU/mL EV71 viruses per well were added. • (3) After 1 h, different polypeptides were added at a final concentration of 0.01 μM, 0.1 μM, 1 μM, 10 μM, and 50 μM, respectively. • (4) Samples were collected 24 hours after virus infection, and RNA was extracted with total RNA extraction kit as follows. • (5) The supernatant in the wells was discarded, then 350 μl of TRK Lysis Buffer was added to each well and the plate was shaken on the shaker for 5 minutes. • (6) 350 μl of 70% ethanol (DEPC-treated) was added to the well and the plate was shaken on the shaker for 5 minutes. • (7) The mixture in the well was transferred to a RNA extraction column and centrifuged at 12,000 g for 1 min. • (8) The solution collected in the recovery tube was added back to the column and centrifuged at 12,000 g for 1 min. • (9) RNA washing buffer 1 was added to the column and centrifuged at 12,000 g for 30 s. • (10) RNA washing buffer 2 was added to the column and centrifuged at 12,000 g for 1 min. • (11) Step (10) was repeated once. • (12) The column was centrifuged at 12000 g for 2 min to completely remove residual RNA washing buffer. • (13) 50 μl DEPC-treated H2O was added to the column and centrifuge at 12,000 g for 2 min. • (14) 2 μl RNA sample was used according to one step qRT-PCR kit for fluorescence quantification experiment.
RD cells added with R8 penetrating peptide (sequence: RRRRRRRR) were used as a negative control.
RD cells were used to test the antiviral effect of polypeptide P2. EV71 (MOI=0.1) was added to RD cells at 80% confluence. After 1 hour of infection, polypeptide P2 was added at concentrations of 0.01 μM, 0.1 μM, 1 μM, 10 μM, and 50 μM, respectively. The samples were collected 24 hours later, and the total RNA was extracted. The level of viral genomic RNA was detected by qRT-PCR. The cells infected with the same type virus and added with penetrating peptide R8 were used as a control group.
• (1) RD cells were plated in five 100 mm dishes. • (2) After the cells reached 70%-80% confluence, the MEM medium containing 10% serum was replaced with a MEM medium containing 2% serum. […] When the changes were obvious, samples were collected as follows. • (4) The supernatant in the 100 mm dish was transferred into a 15 ml centrifuge tube, and centrifuged at 500 g for 5 min. • (5) The supernatant was transferred into a new 15 ml centrifuge tube, and filtered through 0.22 μm filter membrane with a 50 ml syringe. • (6) RNA was extracted from 100 μl of the supernatant obtained in step (5) and subjected to one step qRT-PCR to measure the virus titer, and the previously extracted virus RNA with known titer was handled together as a control. 3. […]

| Compound | IC50 (read-out: IC50 against EV71 by qRT-PCR) [µM] | Relative viral RNA amount (%) (EV71 MOI=0.1, 0.01 μM) | Relative viral RNA amount (%) (EV71 MOI=0.1, 0.1 μM) | Relative viral RNA amount (%) (EV71 MOI=0.1, 1 μM) |
| --- | --- | --- | --- | --- |
| RRRRRRRREEVRQYCRDQ [P2] | 6.37 | – | – | – |
| CC[C@@H](C)[C@@H](NC(=O)[C@H]1CCCN1C(C)=O)C(=O)N[C@@H](C(=O)N[C@H](Cc1c[nH]c2ccccc12)C(=O)NCC(=O)N[C@H](CCC(N)=O)C(=O)N[C@H](CCC(=O)O)C(=O)N[C@H](CCCNC(=N)N)C(=O)N[C@H](CS)C(=O)N[C@H](Cc1ccc(O)cc1)C(=O)N[C@H](CCC(N)=O)C(=O)N[C@H](CCCNC(=N)N)C(=O)N[C@@H](C(=O)N[C@H](CCC(=O)O)C(=O)N[C@H](CCC(=O)O)C(=O)N1CCC[C@@H]1C(=O)N1CCC[C@@H]1C(=O)N[C@H](CCCNC(=N)N)C(=O)N[C@H](CCCNC(=N)N)C(=O)N[C@H](CCCNC(=N)N)C(=O)N[C@H](CCC(N)=O)C(=O)N[C@H](CCCNC(=N)N)C(=O)N[C@H](CCCNC(=N)N)C(=O)N[C@H](CCCCN)C(=O)N[C@H](CCCCN)C(=O)N[C@H](CCCNC(=N)N)C(=O)NCC(=O)N[C@H](Cc1ccc(O)cc1)C(N)=O)C(C)C)[C@H](C)CC [3A-EP-DRI] | – | 75.93% and 73.36% and 72.89% | 72.52% and 70.59% and 61.38% | 100.5% and 95.84% and 90.71% |
| CCCCCCCCCCCCCCCC(=O)NCCCC[C@H](NC(=O)CCOCCOCCOCCOCCNC(=O)[C@H](CCCCN)NC(=O)[C@H](C)NC(=O)[C@@H]1CCCN1C(=O)[C@@H](NC(=O)[C@@H](NC(=O)[C@H](Cc1c[nH]c2ccccc12)NC(=O)CNC(=O)[C@H](CCC(N)=O)NC(=O)[C@H](CCC(=O)O)NC(=O)[C@H](CCCNC(=N)N)NC(=O)[C@H](CS)NC(=O)[C@H](Cc1ccc(O)cc1)NC(=O)[C@H](CCC(N)=O)NC(=O)[C@H](CCCNC(=N)N)NC(=O)[C@@H](NC(=O)[C@H](CCC(=O)O)NC(=O)[C@@H](N)CCC(=O)O)C(C)C)[C@@H](C)CC)[C@@H](C)CC)C(=O)O [3A-EP-PEG4-PA] | – | 72.5% and 68.12% and 59.1% | 69.96% and 68.69% and 67.81% | 107.1% and 89.26% and 75.24% |
